Measurements as given in ChEMBL document CHEMBL2073874, “The multidrug resistance transporter ABCG2 (breast cancer resistance protein 1) effluxes Hoechst 33342 and is overexpressed in hematopoietic stem cells” (Clin Cancer Res, 2002).

Target: T1, Broad substrate specificity ATP-binding cassette transporter ABCG2 (Homo sapiens, UniProt Q9UNQ0)
T1 sequence (Q9UNQ0 whole entry): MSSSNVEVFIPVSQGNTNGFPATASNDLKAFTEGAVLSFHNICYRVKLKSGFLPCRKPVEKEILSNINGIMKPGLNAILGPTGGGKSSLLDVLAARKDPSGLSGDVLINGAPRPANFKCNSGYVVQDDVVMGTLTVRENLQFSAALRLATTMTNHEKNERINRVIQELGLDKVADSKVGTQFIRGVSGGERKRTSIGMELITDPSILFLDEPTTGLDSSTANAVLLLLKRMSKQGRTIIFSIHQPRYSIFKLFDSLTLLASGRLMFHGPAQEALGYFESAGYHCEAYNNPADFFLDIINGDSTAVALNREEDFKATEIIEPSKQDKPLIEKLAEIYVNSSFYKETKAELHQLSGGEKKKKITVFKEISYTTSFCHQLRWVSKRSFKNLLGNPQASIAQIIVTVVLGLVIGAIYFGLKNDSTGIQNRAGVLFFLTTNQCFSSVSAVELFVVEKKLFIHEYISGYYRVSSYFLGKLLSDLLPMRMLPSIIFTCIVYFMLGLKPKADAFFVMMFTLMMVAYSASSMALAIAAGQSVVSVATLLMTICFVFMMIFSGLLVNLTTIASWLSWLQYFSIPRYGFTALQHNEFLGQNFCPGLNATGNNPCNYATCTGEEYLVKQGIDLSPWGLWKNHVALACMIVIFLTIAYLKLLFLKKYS
Experiment: TP_TRANSPORTER: efflux in BCRP-expressing MCF-7 cells
Type: functional, cell-based
Conditions: mcf7

Structure (SMILES): CCOc1ccc(-c2nc3cc(-c4nc5cc(N6CCN(C)CC6)ccc5[nH]4)ccc3[nH]2)cc1
- Activity: substrate [+]
